Columns and labels:
[1] = Partition coefficient based on HPLC; assay type: physicochemical; conditions: 50 mM triethylamine phosphate (pH 7.2)/acetonitrile=40/60; log PHPLC=0.96(log10K′HPLC)+1.59
Method: The partition coefficient by HPLC (hereinafter referred to as log PHPLC) was measured by the following method.
First, compounds for evaluation shown in Table 1-5 were dissolved at a concentration of 1 mg/mL in methanol containing 10% dimethylsulfoxide to prepare sample solutions. One μL of the sample solution was subjected to HPLC analysis under the following conditions to determine the elution time (t0) of the solvent and the elution time (tR) of each compound. […]
Using the obtained t0 and tR, the retention factor (hereinafter referred to as K′HPLC value) of each compound for evaluation was determined according to the following calculation formula (1-3). […]
After the individual solutions were stirred for 30 seconds, the solutions were centrifuged at 2,000 rpm for 60 minutes. 1 mL each of the octanol phase and the water phase was fractionated, and the radioactivity was measured by an autowell gamma system (manufactured by Aloka Co., Ltd.: Type ARC-301B). Based on the obtained radioactivity, log Poctanol values were calculated according to the above equation (1-2). […]
Using K′HPLC obtained for each compound for evaluation, the log PHPLC value of each compound for evaluation was determined according to the above calculation formula (1-4).

[2] = International Publication WO03/106439 pamphlet; cited from earlier work
[3] = Partition coefficient based on the octanol extraction method, Examples II-8 to II-9; assay type: physicochemical; conditions: octanol / 10 mmol/L phosphate buffer (pH 7.4); Table 2-4
Method: To 2 mL of octanol, 10 μL each of the prepared sample solutions was added, 2 mL of 10 mmol/L phosphate buffer (pH 7.4) was added, followed by stirring for 30 seconds. After the mixture was centrifuged with a low-speed centrifuge (2000 rpm×60 min.), the octanol layer and the water layer were sampled each in an amount of 1 mL, and subjected to measurement of radioactivity count with an autowell gamma system (Type: ARC-301B, manufactured by Aloka). Using the obtained radioactivity count, log Poctanol was calculated in accordance with the equation (2-2).

[4] = Partition coefficient based on the octanol extraction method, Example I-29; assay type: physicochemical; conditions: octanol / 10 mmol/L phosphate buffer (pH 7.4); Table I-9
Method: To 2 mL of octanol, 10 μL each of the prepared sample solutions was added, and 2 mL of a 10 mmol/L phosphate buffer (pH 7.4) was further added, followed by stirring for 30 seconds.

[5] = Partition coefficient based on the octanol extraction method, Examples I-13 to I-14; assay type: physicochemical; conditions: octanol / 10 mmol/L phosphate buffer (pH 7.4); Table 1-4
Method: After the mixture was centrifuged with a low-speed centrifuge (2000 rpm×60 min.), the octanol layer and the water layer were sampled each in an amount of 1 mL, and subjected to measurement of radioactivity count with an autowell gamma system (manufactured by Aloka, Type: ARC-301B). Using the obtained radioactivity count, log Poctanol was calculated in accordance with the equation (1-2).

[6] = Transferability into brain and clearance, Examples II-10 to II-11; assay type: in vivo, male Wistar rats; conditions: rats, intravenous injection, Table 2-5
Method: 0.05 mL each of the prepared sample solutions was injected under thiopental anesthesia into the tail vein of the rats. The rats were sacrificed by bleeding from abdominal artery, and brains were removed and subjected to measurement of mass of brains and further subjected to measurement of radioactivity (hereinafter referred to as A in this Example) with a single channel analyzer (detector type SP-20 manufactured by OHYO KOKEN KOGYO Co., Ltd.) 2, 5, 30, and 60 minutes after the injection. Further, the radioactivity level of the rest of the whole body was measured in the same manner as above (hereinafter referred to as B in this Example). Using these measurement results, radioactive distribution per unit weight of brain (% ID/g) at the respective time points were calculated in accordance with the following formula (2-3).
(§1) Three animals were used for the experiment at the respective time points.

[7] = Transferability into brain and clearance, Examples II-22 to II-23; assay type: in vivo, male Wistar rats; conditions: rats, intravenous injection, Table 2-7
Method: 0.05 mL each of the prepared sample solutions was injected under thiopental anesthesia into the tail vein of the respective Wistar rat (7-week old). The rats were sacrificed by bleeding from abdominal artery, and brains were removed and subjected to measurement of mass of brains and further subjected to measurement of radioactivity (hereinafter referred to as A in this Example) with a single channel analyzer (detector type SP-20 manufactured by OHYO KOKEN KOGYO Co., Ltd.) 2, 5, 30, and 60 minutes after the injection. Further, the radioactivity level of the rest of the whole body was measured in the same manner as above (hereinafter referred to as B in this Example). Using these measurement results, radioactive distribution per unit weight of brain (% ID/g) at the respective time points were calculated in accordance with the following formula (2-5).
as §1

[8] = Transferability into brain and clearance (2), Example I-30; assay type: in vivo, male Wistar rats; conditions: rats, intravenous injection, Table 1-10
Method: 0.05 mL each of these solutions was injected under thiopental anesthesia into the tail vein of respective Wistar rats (7-week old). The rats were sacrificed by bleeding from abdominal artery, and brains were removed and subjected to measurement of mass of brains and further subjected to measurement of radioactivity (hereinafter referred to as A in this Example) with a single channel analyzer (detector type: SP-20 manufactured by OHYO KOKEN KOGYO Co., Ltd.) 2, 5, 30 and 60 minutes after the injection. Also, radioactivity (hereinafter referred to as B in this Example) of the rest of the whole body was measured in the same manner as above. Using these measurement results, radioactive distribution per unit weight of brain (% ID/g) at the respective time points were calculated in accordance with the following formula (1-7).
Three animals were used for experiment at the respective time points.

[9] = tested on: intracerebral amyloid (aggregated Aβ1-40 injected into amygdaloid nucleus); assay: Ex vivo autoradiogram of 123I-IMPY using rats of amyloid injected model, Comparative Example II-6; assay type: in vivo, male Wistar rat; conditions: autoradiogram, 60 minutes after tail vein injection
Method: (§2) (1) Aβ1-40 (manufactured by Peptide Institute, INC.) was dissolved in phosphate buffer (pH 7.4) and shaken at 37° C. for 72 hours, to obtain 1 mg/mL of a suspension of aggregated Aβ (hereinafter referred to as amyloid suspension in this Example).
(§3) (2) 2.5 μL (corresponding to 25 μg) of the amyloid suspension was injected into an amygdaloid nucleus on one side of a male Wistar rat (7-week old). As a control, 2.5 μL of a phosphate buffered physiological saline solution (pH 7.4) was injected into an amygdaloid nucleus on the other side of the rat. The rats were examined 1 day after the injection of the amyloid suspension and the phosphate buffered physiological saline solution (pH 7.4).
(§4) This solution was injected under thiopental anesthesia into the rat through the tail vein (dosage: 0.5 mL, dosed radioactivity: 14.5 MBq equivalent).
(§5) (4) Brain was removed 60 minutes after the injection to prepare a brain slice of 10 μm in thickness with a microtome (type: CM3050S, manufactured by LEICA). The brain slice was exposed to an imaging plate for 20 hours, and then image analysis was carried out by use of a Bio-imaging Analyzer (type: BAS-2500; manufactured by FUJIFILM Corporation).

[10] = molecular target: T1, intracerebral amyloid (aggregated Aβ1-40 injected into amygdaloid nucleus) (Homo sapiens, UniProt P05067); assay: as above; assay type: in vivo, male Wistar rat; conditions: brain slice 60 minutes after tail vein injection
T1 construct: Aβ1-40 (Peptide Institute, INC.) was dissolved in phosphate buffer (pH 7.4); purchased Peptide Institute, INC
Method: as §2, §3, §4, §5

[11] = Partition coefficient based on the octanol extraction method, Examples II-20 to II-21; assay type: physicochemical; conditions: octanol / 10 mmol/L phosphate buffer (pH 7.4); Table 2-6
Method: To 2 mL of octanol, 10 μL each of the prepared sample solution was added, and 2 mL of 10 mmol/L phosphate buffer (pH 7.4) was further added, followed by stirring for 30 seconds. After the mixture was centrifuged with a low-speed centrifuge (2000 rpm×60 min.), the octanol layer and the water layer were sampled each in an amount of 1 mL, and subjected to measurement of radioactivity count with an autowell gamma system (Type: ARC-301B, manufactured by Aloka). Using the obtained radioactivity count, log Poctanol was calculated in accordance with the equation (2-4).

[12] = Transferability into brain and clearance, Examples I-20 to I-21; assay type: in vivo, male Wistar rats; conditions: rats, intravenous injection, Table 1-7
Text: Three animals were used for Experiment I-20 and Comparative Experiment I-9, and two animals were used for Experiment I-21 at the respective time points.

T1 sequence (P05067 672-711): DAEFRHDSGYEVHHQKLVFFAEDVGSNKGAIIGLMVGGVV

CN(C)c1ccc(-c2cn3cc(I)ccc3n2)cc1 [IMPY, 6-iodo-2-[4′-(N,N-dimethylamino)phenyl]imidazo[1,2-a]pyridine]
logPHPLC value [1]: 2.1 | reverse mutation test result [2]: positive

CN(C)c1ccc(-c2cn3cc([123I])ccc3n2)cc1 [[^123I]-IMPY, reference compound]
logPoctanol value [3]: 1.9 | logPoctanol value [4]: 2.1 | logPoctanol value [5]: 2.1 | Radioactive distribution in brain per unit weight, After 2 min. ([6]; 2 min.): 1.19 % ID/g | Radioactive distribution in brain per unit weight, After 5 min. ([6]; 5 min.): 0.97 % ID/g | Radioactive distribution in brain per unit weight, After 30 min. ([6]; 30 min.): 0.23 % ID/g | Radioactive distribution in brain per unit weight, After 60 min. ([6]; 60 min.): 0.09 % ID/g | Radioactive distribution in brain per unit weight, After 2 min. ([7]; 2 min.): 1.19 % ID/g | Radioactive distribution in brain per unit weight, After 5 min. ([7]; 5 min.): 0.97 % ID/g | Radioactive distribution in brain per unit weight, After 30 min. ([7]; 30 min.): 0.23 % ID/g | Radioactive distribution in brain per unit weight, After 60 min. ([7]; 60 min.): 0.09 % ID/g | Radioactive distribution in brain per unit weight, After 2 min. ([8]; 2 min.): 1.19 % ID/g | Radioactive distribution in brain per unit weight, After 5 min. ([8]; 5 min.): 0.97 % ID/g | Radioactive distribution in brain per unit weight, After 30 min. ([8]; 30 min.): 0.23 % ID/g | Radioactive distribution in brain per unit weight, After 60 min. ([8]; 60 min.): 0.09 % ID/g | accumulation of radioactivity where amyloid was not injected (white matter) [9]: non-specific accumulation was observed in white matter | accumulation of radioactivity in amygdaloid nucleus on the side to which the amyloid suspension was injected [10]: marked accumulation of radioactivity | logPoctanol value [11]: 2.1 | Radioactive distribution in brain per unit weight, After 2 min. ([12]; 2 min.): 1.02 % ID/g | Radioactive distribution in brain per unit weight, After 5 min. ([12]; 5 min.): 0.99 % ID/g | Radioactive distribution in brain per unit weight, After 30 min. ([12]; 30 min.): 0.20 % ID/g | Radioactive distribution in brain per unit weight, After 60 min. ([12]; 60 min.): 0.08 % ID/g
